Test results reported in US20040087561A1, “Treatment of sexual dysfunction” (priority 2000, published 2004).

Assays:
[1] = test system: Female New Zealand rabbits; experiment: Pelvic nerve-stimulated female genital blood flow, anaesthetised rabbit model of sexual arousal; assay type: in vivo; settings: 15 mg/kg sc
Experimental: Female New Zealand rabbits (2.5 kg) were pre-medicated with a combination of Medetomidine (Domitor®) 0.5 ml/kg im., and Ketamine (Vetalar®) 0.25 ml/kg i.m. whilst maintaining oxygen intake via a face mask. The rabbits were tracheotomised using a Portex™ uncuffed endotracheal tube 3 ID., connected to ventilator and maintained at a ventilation rate of 30-40 breaths per minute, with an approximate tidal volume of 18-20 ml, and a maximum airway pressure of 10 cm H2O. Anaesthesia was then switched to Isoflurane and ventilation continued with O2 at 2 l/min. The right marginal ear vein was cannulated using a 23G or 24G catheter, and Lactated Ringer solution perfused at 0.5 ml/min. The rabbit was maintained at 3% Isoflurane during invasive surgery, dropping to 2% for maintenance anaesthesia.
The left groin area of the rabbit was shaved and a vertical incision was made approximately 5 cm in length along the thigh. […] Systolic and diastolic pressures were measured, and the mean arterial pressure calculated using the formula (diastolic ×2+systolic)÷3. Heart rate was measured via the pulse oxymeter and Po-ne-mah data acquisition software system (Ponemah Physiology Platform, Gould Instrument Systems Inc). […] A frequency response curve was determined at the start of each experiment in order to determine the optimum frequency to use as a sub-maximal response, normally 4 Hz. […]

[2] = test system: ovariectomised female Sprague Dawley rats; experiment: Female rat sexual proceptivity (time investigating male vs female stimulus); assay type: in vivo
Experimental: Ovariectomised adult female Sprague Dawley rats (180-200 g, from Charles River) were housed in groups of 6 in a reversed lighting system of 12 h light:dark (lights off 7.00-19.00 h). Two weeks after ovariectomy they were used for sexual activity tests. The experiments started at least 5 h into the dark period.
Tests were carried out in a circular arena of 90 cm diameter, surrounded by a 30 cm high wall. Two small cages with wire-mesh front (15×15 cm) are fixed into the wall such that the front of the cage is <> with the wall and the 2 cages are opposite each other. They contained two stimuli animals: an intact sexually experienced male and a receptive female (ovariectomised, primed with 5 μg oestradiol benzoate dissolved in corn oil and injected subcutaneously 48 hours before the test and with 0.5 mg of progesterone four hours before the test). Sexually naive test and control animals were used. Forty eight hours before the tests, both the test and control animals were primed with 5 μg oestradiol benzoate. For animals used as positive controls, progesterone (0.5 mg/0.1 ml) was dissolved in corn oil and administered subcutaneously (s.c.), 4 h before the test. Test and control animals were introduced one at a time for 10 minute periods into the arena. During the 10 min test, the time that the test or positive control animal spent investigating each stimulus animal was noted. The arena was thoroughly cleaned between animals. The position of the male/female stimuli boxes was randomised between animals, in order to avoid place preference. The difference in the percentage of time spent investigating the male minus the female stimuli was calculated, out of the total time spent investigating stimuli animals.
Compound (1) was dissolved in 100% β-cyclodextrin and then diluted with saline to a final solution of 50% 2-hydroxypropyl-β-cyclodextrin. It was administered intraperitoneally (i.p.) at doses of 3 and 10 mg/kg, in a dosing volume of 1 ml/kg, 1 h before tests. Progesterone (0.5 mg/0.1 ml) was dissolved in corn oil and administered subcutaneously (s.c.), 4 h before test, as a positive control.
Ovariectomised adult female Sprague Dawley rats (180-200 g) were housed in groups of 5 in a reversed lighting system of 12 h light:dark (lights off 5.00-17.00 h). They were used for the experiments at least two weeks after ovariectomy. Forty eight hours before tests, the animals were primed with oestradiol benzoate (5 μg/0.1 ml in corn oil, s.c.). On day 1, progesterone (0.5 mg/0.1 ml, in corn oil, s.c.) was administered to one of the groups 4 h before tests, as a positive control. Compound (1) (15 mg/kg, i.p.) was administered in 50% 2-hydroxypropyl-β-cyclodextrin, 1 h before tests. The test lasted 10 minutes and was carried out as described before. The difference in the percentage of time spent investigating the male minus the female stimuli was calculated, out of the total time spent investigating stimuli animals. Animals were submitted to a test on day 1 and on day 15. From day 2 to 14 the Compound (1) group received a daily injection of the compound (15 mg/kg, i.p.), while both the vehicle and the progesterone groups received an injection of vehicle. On day 15 the test took place again, as described for day 1.
Ovariectomised female rats (Sprague Dawley, obtained from Charles River, UK) were stereotaxically implanted (coordinates 0.89 mm behind Bregma, 1.3 mm lateral and 2.5 mm vertical) with stainless steel cannulae (6 mm long, O.D. 0.75 mm), held in place with dental cement. Animals were housed in groups of three and returned to a reversed lighting system of 12 h light:dark (lights off 5.00-17.00 h). Correct placement of the cannulae was assessed post-mortem. Rats were used for tests two weeks after ovariectomy (one week after cannulation). The experiments started at least 5 h into the dark period. […]

With `COc1ccc(C2(CNC(=O)[C@](C)(Cc3c[nH]c4ccccc34)NC(=O)Nc3ccc([N+](=O)[O-])cc3)CCCCC2)nc1` [Compound (1), (S) 3-(1H-Indol-3-yl)-N-[1-(5-methoxy-pyridin-2-yl)-cyclohexyl-methyl]-2-methyl-2-[3-(4-nitro-phenyl)-ureido]-propionamide] the “pelvic-nerve stimulated (PNS) increases in genital (vaginal and clitoral) blood flow” value [1] was “potent enhancer”, the “effect on proceptivity, day 1” value ([2]; day 1, Compound (1) 15 mg/kg i.p. 1 h before, progesterone 0.5 mg/0.1 ml s.c. 4 h before, vs vehicle, P<0.01) was “stimulatory effect on proceptivity” and the “MED, percentage of time spent investigating the male stimulus (proceptivity)” value ([2]; i.c.v., 3-30 μg/rat, 10 min before test) was 10 µg. For the same molecule, the “percentage of time spent investigating the male stimulus (proceptivity)” value ([2]; i.c.v., dose-dependently 3-30 μg/rat, 10 min before test) was “increased the percentage of time spent investigating the male stimulus”, the “MED, percentage of time spent investigating the male stimulus (proceptivity)” value ([2]; i.p., 3 and 10 mg/kg, 1 h before test, 50% 2-hydroxypropyl-β-cyclodextrin) was 10 mg/kg and the “percentage of time spent investigating the male stimulus (proceptivity)” value ([2]; i.p., dose-dependently 3 mg/kg-10 mg/kg, 1 h before test, vs vehicle) was “increased the percentage of time spent investigating the male stimulus”. For the same molecule, the “body weight or general behaviour” value ([2]; repeated administration 15 mg/kg i.p. daily for 15 days) was “no changes in body weight or general behaviour”.
